Measured values reported in PubChem BioAssay AID1963848 (Molecular Pharmacology Branch, DTP, NCI, 2024).

Tested on: 379773-124-R-J2-PDC spheroid viability
Assay: Anticancer human tumor 379773-124-R-J2-PDC patient-derived endometrial carcinoma cell line growth inhibition [POLQ]
Conditions: spheroids with HUVEC and MSC; for IC50: curve of first compound; for viability, T/C: stronger effect = lower value; active means viability on the fitted dose curve at most 10% of control; inactive means the rest
Experimental: Multicellular complex tumor spheroid response to Polymerase (POL) inhibitors (novobiocin, ART-558, RP6685) in combination with a variety of drugs and investigational agents in selected tumor cell lines
The POL inhibitors (novobiocin, ART-558, and RP6685) were evaluated both individually and in combination with standard of care and investigational anticancer small molecules within a complex spheroid model of solid tumors. . Complex spheroids include a stromal component modeled by human endothelial cells (HUVEC) and fibroblasts modeled by human mesenchymal stem cells (MSCs). The concentration ranges selected for each drug and investigational agent were based upon clinically achievable concentrations if the clinical Cmax of the agent was known.
Compounds. The drugs and investigational agents: novobiocin (NSC847541), ART-558 (NSC835418), RP-6685 (NSC848927), peposertib (NSC802822), ceralasertib (NSC780249), elimusertib (NSC800525), camonsertib (NSC841442), AZD-1390 (NSC803789), olaparib (NSC753686), talazoparib (NSC767125), rucaparib (NSC756644), sotorasib (NSC818433), MRTX-1133 (NSC836407), SN-38 (NSC673596), topotecan (NSC609699), epotoside (NSC141540), doxorubicin (NSC123127), gemcitabine (NSC613327), 5-fluorouracil (NSC19893), paclitaxel (NSC125973), vemurafenib (NSC761431), MSA-2 (NSC828583), SN-011 (NSC837082), adavosertib (NSC754352), prexasertib (NSC758257), carboplatin (NSC241240) and oxaliplatin (NSC266046), were obtained from the National Cancer Institute (NCI) Developmental Therapeutics Program Chemical Repository (21). The FDA-approved anticancer drug set is available from the Developmental Therapeutics Program at https://dtp.cancer.gov/organization/dscb/obtaining/. […] The stock solutions were prepared in dimethyl sulfoxide (DMSO, Sigma-Aldrich, St. Louis, MO, cat. D2650), except for the platinum compounds which were prepared in saline (Quality Biological, Gaithersburg, MD, cat. 114-055-101), at 800-fold the tested concentration and stored at -70 degrees C prior to their use. All drugs and investigational agents were tested over a range starting from a high concentration at or near the clinical Cmax and decreasing in half-log increments. If the clinical Cmax for an agent had not been determined, the highest concentration tested was 10 microM, except for SN-38, which was tested at a high concentration of 1 microM.
Cell Culture. All cells were maintained in an incubator at 37 degrees C and 5% CO2 with 95% humidity. The PDC lines were cultured according to standard operating procedures established by the NCI PDMR (https://pdmr.cancer.gov). Table 3 of the manuscript, lists the cell lines along with the number of the three cell types plated to form the mct-spheroids and media for tumor cell growth. After thawing, all PDC lines, except 997537-175-T-J1-PDC and 415267-285-R-J2-PDC, were cultured in Matrigel-coated flasks prepared with a working solution of 1X Ham's F-12 nutrient mix, without supplementation (Thermo Fisher Scientific, cat. 11765054), 100 U/mL penicillin-streptomycin (Thermo Fisher Scientific, cat. 15140122), and 2.5% Matrigel (Corning Inc., Corning, NY, cat. 354248) for the first three passages. The two PDC lines 997537-175-T-J1-PDC and 415267-285-R-J2-PDC were cultured on uncoated flasks. The 857933-349-R-J2-PDC line was cultured in 6C/Colon 1B media containing advanced DMEM/F-12 (Thermo Fisher Scientific, cat. 12634028), 10 mM HEPES (Thermo Fisher Scientific, cat. 15630080), 1X GlutaMAX supplement (Thermo Fisher Scientific, cat. 35050061), 0.1 mg/mL primocin (InvivoGen, San Diego, CA, cat. ant-pm-2), 10% defined fetal bovine serum, heat inactivated (HyClone Laboratories Inc., Logan, UT, cat. SH30070.03HI), 50% L-WRN conditioned media (ATCC, cat. CRL-3276), 1.25 mM N-Acetyl-L-cysteine (Sigma-Aldrich, cat. A9165), 10 mM nicotinamide (Sigma-Aldrich, cat. N0636), 1X B-27 supplement (Thermo Fisher Scientific, cat. 17504044), 1X N-2 supplement (Thermo Fisher Scientific, cat. […]
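Further: spheroids exposed to drugs for seven days before readout.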
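Wherever viability, T/C is given: percent viability relative to DMSO vehicle control taken as 100%.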

CNCc1ccc(-c2[nH]c3cc(F)cc4c3c2CCNC4=O)cc1 + Nc1ccc(C#CCN(C(=O)Cc2ncc(C(F)(F)F)cc2C(F)(F)F)c2ccc(F)cc2)nn1
> 10 µM: IC50 (second compound 0.0316 µM) | IC50 (second compound 0.1 µM) | IC50 (second compound 0.316 µM) | IC50 (second compound 1 µM) | IC50 (second compound 3.16 µM) | IC50 (second compound 10 µM)
inactive: viability, T/C (second compound 0.0316 µM, first compound 0.0316 µM) 92.7% | viability, T/C (second compound 0.0316 µM, first compound 0.1 µM) 91.7% | viability, T/C (second compound 0.0316 µM, first compound 0.316 µM) 91.2% | viability, T/C (second compound 0.0316 µM, first compound 1 µM) 101% | viability, T/C (second compound 0.0316 µM, first compound 3.16 µM) 99.8% | viability, T/C (second compound 0.0316 µM, first compound 10 µM) 99.7% | viability, T/C (second compound 0.1 µM, first compound 0.0316 µM) 84.4% | viability, T/C (second compound 0.1 µM, first compound 0.1 µM) 90.7% | viability, T/C (second compound 0.1 µM, first compound 0.316 µM) 87.5% | viability, T/C (second compound 0.1 µM, first compound 1 µM) 95.8% | viability, T/C (second compound 0.1 µM, first compound 3.16 µM) 101% | viability, T/C (second compound 0.1 µM, first compound 10 µM) 79.6% | viability, T/C (second compound 0.316 µM, first compound 0.0316 µM) 101% | viability, T/C (second compound 0.316 µM, first compound 0.1 µM) 95.4% | viability, T/C (second compound 0.316 µM, first compound 0.316 µM) 85.9% | viability, T/C (second compound 0.316 µM, first compound 1 µM) 87.1% | viability, T/C (second compound 0.316 µM, first compound 3.16 µM) 93.8% | viability, T/C (second compound 0.316 µM, first compound 10 µM) 93.3% | viability, T/C (second compound 1 µM, first compound 0.0316 µM) 90.4% | viability, T/C (second compound 1 µM, first compound 0.1 µM) 101% | viability, T/C (second compound 1 µM, first compound 0.316 µM) 91.2% | viability, T/C (second compound 1 µM, first compound 1 µM) 91.2% | viability, T/C (second compound 1 µM, first compound 3.16 µM) 92.9% | viability, T/C (second compound 1 µM, first compound 10 µM) 83.4% | viability, T/C (second compound 3.16 µM, first compound 0.0316 µM) 88.2% | viability, T/C (second compound 3.16 µM, first compound 0.1 µM) 86% | viability, T/C (second compound 3.16 µM, first compound 0.316 µM) 84.8% | viability, T/C (second compound 3.16 µM, first compound 1 µM) 86% | viability, T/C (second compound 3.16 µM, first compound 3.16 µM) 96.3% | viability, T/C (second compound 3.16 µM, first compound 10 µM) 79.4% | viability, T/C (second compound 10 µM, first compound 0.0316 µM) 102% | viability, T/C (second compound 10 µM, first compound 0.1 µM) 88.4% | viability, T/C (second compound 10 µM, first compound 0.316 µM) 85.3% | viability, T/C (second compound 10 µM, first compound 1 µM) 87.1% | viability, T/C (second compound 10 µM, first compound 3.16 µM) 96.6% | viability, T/C (second compound 10 µM, first compound 10 µM) 86.4%
